Source: ChEMBL document CHEMBL4387773, “Identification of potent, selective and orally bioavailable phenyl ((R)-3-phenylpyrrolidin-3-yl)sulfone analogues as RORγt inverse agonists” (Bioorg Med Chem Lett, 2019)

What was measured:
[1] = Stability in human liver microsomes assessed as parent compound remaining after 10 mins; assay type: ADME, Microsome; conditions: for remaining at 10 min: liver microsomes, read-out: Stability; for Stability: microsomes, 10 min
[2] = target: T1, Nuclear receptor subfamily 1 group I member 2 (Homo sapiens, UniProt O75469); assay: Transactivation of PXR (unknown origin) expressed in human HepG2 cells; assay type: cell-based
T1 sequence (O75469 whole entry): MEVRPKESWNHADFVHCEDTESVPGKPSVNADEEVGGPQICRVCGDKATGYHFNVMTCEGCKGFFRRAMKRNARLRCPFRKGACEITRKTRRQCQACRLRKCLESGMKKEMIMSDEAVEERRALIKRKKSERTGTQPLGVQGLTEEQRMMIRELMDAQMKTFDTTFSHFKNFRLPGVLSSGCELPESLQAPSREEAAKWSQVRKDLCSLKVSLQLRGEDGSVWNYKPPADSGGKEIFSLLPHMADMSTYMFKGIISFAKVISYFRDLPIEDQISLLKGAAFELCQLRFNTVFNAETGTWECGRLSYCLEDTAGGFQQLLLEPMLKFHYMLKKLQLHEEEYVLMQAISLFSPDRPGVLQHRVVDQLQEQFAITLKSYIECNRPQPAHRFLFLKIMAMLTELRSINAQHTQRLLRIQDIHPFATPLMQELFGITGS

[3] = target: T2, PXR (Homo sapiens, UniProt O75469); assay: (§1) Transactivation of PXR (unknown origin) expressed in human HepG2 cells assessed as maximum receptor activation response relative to control; assay type: cell-based; conditions: human HepG2 cells that express PXR, read-out: %max
T2 sequence (O75469 whole entry): T1 sequence (O75469 whole entry)

[4] = Stability in mouse liver microsomes assessed as parent compound remaining after 10 mins; assay type: ADME, Microsome; conditions: for remaining at 10 min: liver microsomes, read-out: Stability; for Stability: microsomes, 10 min
[5] = target: T3, Nuclear receptor ROR-alpha (Homo sapiens, UniProt P35398); assay: Inverse agonist activity at human Gal4-fused RORalpha LBD (272 to 556 residues) expressed in human Jurkat cells measured after 18 hrs by steady-glo luciferase reporter gene assay; assay type: cell-based
T3 sequence (P35398 whole entry): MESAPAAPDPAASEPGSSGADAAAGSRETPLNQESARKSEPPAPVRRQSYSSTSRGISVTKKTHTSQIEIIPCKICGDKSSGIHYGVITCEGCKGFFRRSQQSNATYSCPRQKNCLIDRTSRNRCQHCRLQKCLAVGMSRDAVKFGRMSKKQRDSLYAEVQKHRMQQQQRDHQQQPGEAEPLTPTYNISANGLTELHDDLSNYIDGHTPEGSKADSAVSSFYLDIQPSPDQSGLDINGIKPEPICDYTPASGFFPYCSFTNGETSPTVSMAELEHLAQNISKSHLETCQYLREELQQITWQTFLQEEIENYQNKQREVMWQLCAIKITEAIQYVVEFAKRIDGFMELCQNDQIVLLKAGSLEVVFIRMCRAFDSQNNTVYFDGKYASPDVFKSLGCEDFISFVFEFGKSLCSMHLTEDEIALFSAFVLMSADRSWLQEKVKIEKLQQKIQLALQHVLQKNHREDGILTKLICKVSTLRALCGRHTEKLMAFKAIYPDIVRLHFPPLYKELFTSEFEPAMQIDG

[6] = target: T4, Nuclear receptor ROR-beta (Homo sapiens, UniProt Q92753); assay: Inverse agonist activity at human Gal4-fused RORbeta LBD (200 to 559 residues) expressed in human Jurkat cells measured after 18 hrs by steady-glo luciferase reporter gene assay; assay type: cell-based
T4 sequence (Q92753 whole entry): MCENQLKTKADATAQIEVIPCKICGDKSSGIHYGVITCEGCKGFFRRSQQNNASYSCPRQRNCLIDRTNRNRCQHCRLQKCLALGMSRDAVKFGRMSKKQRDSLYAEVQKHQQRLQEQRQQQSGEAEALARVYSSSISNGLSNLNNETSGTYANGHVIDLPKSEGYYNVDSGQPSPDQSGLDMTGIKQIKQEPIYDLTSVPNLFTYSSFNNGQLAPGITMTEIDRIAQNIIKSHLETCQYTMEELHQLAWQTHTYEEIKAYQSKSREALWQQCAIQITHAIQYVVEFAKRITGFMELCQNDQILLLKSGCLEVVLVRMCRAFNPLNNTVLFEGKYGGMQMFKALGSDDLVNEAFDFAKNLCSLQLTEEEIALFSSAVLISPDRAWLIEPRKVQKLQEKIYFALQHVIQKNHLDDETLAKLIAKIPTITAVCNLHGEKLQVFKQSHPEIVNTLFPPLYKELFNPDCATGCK

[7] = target: T5, Oxysterols receptor LXR-alpha (Homo sapiens, UniProt Q13133); assay: Transactivation of human GAL4-fused LXRalpha expressed in African green monkey CV1 cells; assay type: cell-based
T5 sequence (Q13133 whole entry): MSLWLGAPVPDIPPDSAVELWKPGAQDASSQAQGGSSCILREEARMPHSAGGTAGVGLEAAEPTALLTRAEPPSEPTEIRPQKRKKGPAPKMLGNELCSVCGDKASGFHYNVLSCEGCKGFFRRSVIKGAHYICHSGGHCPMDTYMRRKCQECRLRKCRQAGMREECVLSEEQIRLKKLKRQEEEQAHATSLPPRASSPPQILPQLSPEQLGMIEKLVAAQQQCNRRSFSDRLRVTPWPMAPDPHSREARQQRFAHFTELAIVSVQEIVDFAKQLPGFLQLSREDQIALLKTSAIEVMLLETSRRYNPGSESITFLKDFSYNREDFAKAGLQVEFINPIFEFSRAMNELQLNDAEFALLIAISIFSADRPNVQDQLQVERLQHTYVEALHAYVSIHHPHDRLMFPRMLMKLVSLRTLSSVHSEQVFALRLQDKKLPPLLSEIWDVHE

[8] = target: T6, Oxysterols receptor LXR-beta (Homo sapiens, UniProt P55055); assay: Transactivation of human GAL4-fused LXRbeta expressed in African green monkey CV1 cells; assay type: cell-based
T6 sequence (P55055 whole entry): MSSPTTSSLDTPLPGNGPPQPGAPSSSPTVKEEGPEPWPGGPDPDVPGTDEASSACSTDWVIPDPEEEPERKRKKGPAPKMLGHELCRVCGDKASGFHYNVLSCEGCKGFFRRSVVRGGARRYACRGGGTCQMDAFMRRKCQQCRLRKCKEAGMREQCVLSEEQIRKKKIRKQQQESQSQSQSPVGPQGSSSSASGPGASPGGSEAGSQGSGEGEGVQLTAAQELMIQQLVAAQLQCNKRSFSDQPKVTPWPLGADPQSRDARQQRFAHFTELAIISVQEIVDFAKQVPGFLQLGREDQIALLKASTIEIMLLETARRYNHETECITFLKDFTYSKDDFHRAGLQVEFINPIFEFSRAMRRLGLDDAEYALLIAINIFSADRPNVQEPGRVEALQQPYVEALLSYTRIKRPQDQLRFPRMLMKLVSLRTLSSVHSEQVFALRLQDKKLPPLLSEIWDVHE

[9] = target: T1, Nuclear receptor subfamily 1 group I member 2; assay: as §1; assay type: cell-based; conditions: hepg2

| Compound | remaining at 10 min [1] [%] | EC50 [2] [µM] | Emax [3] [%] | remaining at 10 min [4] [%] | EC50 [5] [µM] | EC50 [6] [µM] | EC50 [7] [µM] | EC50 [8] [µM] | %max [9] [%] | Stability [1] [%] | EC50 ([2]; hepg2) [µM] | Stability [4] [%] | EC50 ([5]; jurkat) [µM] | EC50 ([6]; jurkat) [µM] |
| --- | --- | --- | --- | --- | --- | --- | --- | --- | --- | --- | --- | --- | --- | --- |
| O=C(O)C1CCC(O)(C(=O)N2CC[C@](c3ccc(C(F)(C(F)(F)F)C(F)(F)F)cc3)(S(=O)(=O)c3ccc(F)cc3)C2)CC1 (stereo in doubt; 12) | 100 | > 50 | – | 99 | > 40 | > 40 | > 7.5 | > 7.5 | 9 | – | – | – | – | – |
| O=C(O)C1CCC(O)(C(=O)N2CC[C@](c3ccc(C(F)(C(F)(F)F)C(F)(F)F)cc3)(S(=O)(=O)c3ccc(F)cc3)C2)CC1 (stereo in doubt; 13) | – | – | – | – | – | – | > 7.5 | > 7.5 | 19 | 95 | > 50 | 98 | > 40 | > 40 |
| O=C1NC(=O)C2(CCC(C(=O)N3CC[C@](c4ccc(C(F)(C(F)(F)F)C(F)(F)F)cc4)(S(=O)(=O)c4ccc(F)cc4)C3)CC2)N1 (stereo in doubt; 24) | 84 | > 14 | – | 81 | > 40 | > 40 | > 7.5 | > 7.5 | 28 | – | – | – | – | – |
| O=C1NC(=O)C2(CCC(C(=O)N3CC[C@](c4ccc(C(F)(C(F)(F)F)C(F)(F)F)cc4)(S(=O)(=O)c4ccc(F)cc4)C3)CC2)N1 (stereo in doubt; 25) | – | > 50 | – | – | – | – | > 7.5 | > 7.5 | 3 | 93 | – | 82 | > 40 | > 40 |
| CS(=O)(=O)C1CCC(C(=O)N2CC[C@](c3ccc(C(F)(C(F)(F)F)C(F)(F)F)cc3)(S(=O)(=O)c3ccc(F)cc3)C2)CC1 (stereo in doubt; 29) | – | > 50 | – | – | – | – | > 7.5 | > 7.5 | 6 | 100 | – | – | > 40 | > 40 |
| O=C(C1CCS(=O)(=O)C1)N1CC[C@](c2ccc(C(F)(C(F)(F)F)C(F)(F)F)cc2)(S(=O)(=O)c2ccc(F)cc2)C1 (stereo in doubt; 32) | 100 | > 13 | 49 | 78 | > 40 | > 40 | > 7.5 | > 7.5 | – | – | – | – | – | – |
| O=C(C1CCS(=O)(=O)C1)N1CC[C@](c2ccc(C(F)(C(F)(F)F)C(F)(F)F)cc2)(S(=O)(=O)c2ccc(F)cc2)C1 (stereo in doubt; 33) | – | 7.2 | – | – | – | – | > 7.5 | > 7.5 | 37 | – | – | 96 | > 40 | > 40 |

The remaining lines, values ahead:

| remaining at 10 min [1] [%] | EC50 [2] [µM] | Emax [3] [%] | remaining at 10 min [4] [%] | EC50 [5] [µM] | EC50 [6] [µM] | EC50 [7] [µM] | EC50 [8] [µM] | %max [9] [%] | Stability [1] [%] | EC50 ([2]; hepg2) [µM] | Stability [4] [%] | EC50 ([5]; jurkat) [µM] | EC50 ([6]; jurkat) [µM] | Compound |
| --- | --- | --- | --- | --- | --- | --- | --- | --- | --- | --- | --- | --- | --- | --- |
| 100 | > 50 | 16 | 90 | > 40 | > 40 | > 7.5 | > 7.5 | – | – | – | – | – | – | O=C(N1CC[C@](c2ccc(C(F)(C(F)(F)F)C(F)(F)F)cc2)(S(=O)(=O)c2ccc(F)cc2)C1)C1(F)CCS(=O)(=O)CC1 |
| 100 | > 50 | 5 | 100 | > 40 | > 40 | > 7.5 | > 7.5 | – | – | – | – | – | – | NC(=O)[C@H]1CC[C@H](C(=O)N2CC[C@](c3ccc(C(F)(C(F)(F)F)C(F)(F)F)cc3)(S(=O)(=O)c3ccc(F)cc3)C2)CC1 |
| 93 | > 50 | 5 | 96 | > 40 | > 40 | > 7.5 | > 7.5 | – | – | – | – | – | – | O=C(C1CCS(=O)(=O)CC1)N1CC[C@](c2ccc(C(F)(C(F)(F)F)C(F)(F)F)cc2)(S(=O)(=O)c2ccc(F)cc2)C1 |
| 86 | > 50 | 13 | 58 | > 40 | > 40 | > 7.5 | > 7.5 | – | – | – | – | – | – | O=C([C@H]1CC[C@H](O)CC1)N1CC[C@](c2ccc(C(F)(C(F)(F)F)C(F)(F)F)cc2)(S(=O)(=O)c2ccc(F)cc2)C1 |
| 3 | 5.2 | 32 | 0 | > 40 | > 40 | > 7.5 | > 7.5 | – | – | – | – | – | – | CCC1(C(=O)N2CC[C@](c3ccc(C(F)(C(F)(F)F)C(F)(F)F)cc3)(S(=O)(=O)c3ccc(F)cc3)C2)CCS(=O)(=O)CC1 |
| 100 | > 50 | 6 | 90 | > 40 | > 40 | > 7.5 | > 7.5 | – | – | – | – | – | – | O=C(N1CC[C@](c2ccc(C(F)(C(F)(F)F)C(F)(F)F)cc2)(S(=O)(=O)c2ccc(F)cc2)C1)C1(O)CCS(=O)(=O)CC1 |
| 75 | > 50 | 8 | 31 | > 40 | > 40 | > 7.5 | > 7.5 | – | – | – | – | – | – | O=C(N1CC[C@](c2ccc(C(F)(C(F)(F)F)C(F)(F)F)cc2)(S(=O)(=O)c2ccc(F)cc2)C1)C1(CO)CCS(=O)(=O)CC1 |
| 75 | > 50 | 8 | 63 | > 40 | > 40 | > 7.5 | > 7.5 | – | – | – | – | – | – | O=C([C@H]1CC[C@H](CO)CC1)N1CC[C@](c2ccc(C(F)(C(F)(F)F)C(F)(F)F)cc2)(S(=O)(=O)c2ccc(F)cc2)C1 |
| 100 | > 50 | 11 | 73 | > 40 | > 40 | > 7.5 | > 7.5 | – | – | – | – | – | – | O=C([C@H]1CC[C@H](c2nnn[nH]2)CC1)N1CC[C@](c2ccc(C(F)(C(F)(F)F)C(F)(F)F)cc2)(S(=O)(=O)c2ccc(F)cc2)C1 |
